{
  "source": "patent US12469580B2",
  "about": "“In silico discovery of effective antimicrobials” (MASSACHUSETTS INSTITUTE OF TECHOLOGY, priority 2019, dated 2025)",
  "key": {"C. difficile 630": {"tested_on": "C. difficile 630", "assay": "C. difficile mouse infection model", "format": "in vivo, C57BL/6 mice", "details": "for rate of C. difficile clearance from feces: halicin 15 mg/kg, metronidazole 50 mg/kg, vehicle 10% PEG 300"}, "[1]": {"tested_on": "E. coli strains harboring plasmid-borne antibiotic-resistance genes", "format": "cell-based"}, "[2]": {"tested_on": "E. coli, S. aureus, Klebsiella pneumoniae, A. baumannii, and P. aeruginosa", "assay": "ZINC15 compound validation, growth inhibition against a range of pathogens", "format": "cell-based", "details": "LB media"}, "[3]": {"tested_on": "ciprofloxacin-resistant gyrA S83A mutant of BW25113", "format": "cell-based, E. coli"}, "E. coli [4]": {"tested_on": "E. coli", "format": "cell-based"}, "[5]": {"tested_on": "E. coli in a metabolically repressed, antibiotic-tolerant state", "assay": "Bacterial cell killing assay, E. coli in nutrient-free buffer (PBS)", "format": "cell-based"}, "C. difficile strain 630": {"tested_on": "C. difficile strain 630", "assay": "Growth inhibition of C. difficile 630 in vitro", "format": "cell-based", "details": "Clostridioides difficile; C. difficile strain 630, in vitro"}, "A. baumannii 288 cells": {"tested_on": "A. baumannii 288 cells", "assay": "Bacterial cell killing assay, A. baumannii CDC 288 in PBS", "format": "cell-based", "details": "metabolically repressed"}, "E. coli BW25113 [6]": {"tested_on": "E. coli BW25113", "assay": "Evolution of resistance (serial passage, spontaneous suppressor generation)", "format": "cell-based", "details": "30 days serial passaging in liquid media; seven days on solid media"}, "[7]": {"tested_on": "Pseudomonas aeruginosa clinical isolates", "assay": "Growth inhibition of multidrug-resistant clinical isolates, P. aeruginosa", "format": "cell-based", "details": "36 multidrug-resistant clinical isolates"}, "ΔnfsAΔnfsB E. coli": {"tested_on": "ΔnfsAΔnfsB E. coli", "format": "cell-based", "details": "deletion of nfsA and nfsB"}, "M. tuberculosis": {"tested_on": "M. tuberculosis", "assay": "Bacterial cell killing assay, M. tuberculosis in 7H9 media", "format": "cell-based, Mycobacterium tuberculosis", "details": "16 μg/ml"}, "[8]": {"tested_on": "Carbapenem-resistant Enterobacteriaceae (CRE) clinical isolates", "format": "cell-based"}, "E. coli [9]": {"tested_on": "E. coli", "format": "cell-based", "remark": "listed apart in the source"}, "A. baumannii CDC 288 [10]": {"tested_on": "A. baumannii CDC 288", "assay": "Growth inhibition of pan-resistant A. baumannii CDC 288 in vitro", "format": "cell-based", "details": "Acinetobacter baumannii, CDC288, A. baumannii strain 288 (CDC)"}, "[11]": {"tested_on": "daptomycin-resistant RN4220 strain (Δdsp1)", "format": "cell-based, S. aureus"}, "[12]": {"tested_on": "A. baumannii clinical isolates", "assay": "Growth inhibition of multidrug-resistant clinical isolates, A. baumannii", "format": "cell-based", "details": "36 multidrug-resistant clinical isolates"}, "A. baumannii CDC 288 [13]": {"tested_on": "A. baumannii CDC 288", "assay": "A. baumannii mouse wound infection model", "format": "in vivo, Balb/c mice", "details": "halicin 0.5% w/v topical, 25 hours post-infection"}, "E. coli BW25113 [14]": {"tested_on": "E. coli BW25113", "assay": "Growth inhibition assay against E. coli", "format": "cell-based", "details": "Escherichia coli, rich growth conditions, read-out: minimum inhibitory concentration (MIC)"}, "E. coli [15]": {"tested_on": "E. coli", "assay": "Growth inhibition checkerboards of halicin in combination", "format": "cell-based"}, "E. coli MC1061": {"tested_on": "E. coli MC1061", "assay": "DiSC3(5) assay, E. coli", "format": "cell-based", "details": "early-log cells in buffer"}, "E. coli persister cells": {"tested_on": "E. coli persister cells", "assay": "Killing of E. coli persister cells after ampicillin treatment", "format": "cell-based", "details": "cells that remained after treatment with ampicillin"}, "M. tuberculosis H37Rv": {"tested_on": "M. tuberculosis H37Rv", "assay": "Growth inhibition of M. tuberculosis", "format": "cell-based", "details": "Mycobacterium tuberculosis, 7H9 medium, stated as 1×MIC"}, "E. coli [16]": {"tested_on": "E. coli", "assay": "Growth inhibition of E. coli in pH-adjusted or bicarbonate-supplemented media"}, "MRSA": {"tested_on": "MRSA", "assay": "Activity against MRSA", "format": "cell-based, Staphylococcus aureus"}, "S. aureus USA300": {"tested_on": "S. aureus USA300", "assay": "Growth inhibition of S. aureus in pH-adjusted media", "format": "cell-based, Staphylococcus aureus"}},
  "note": "Entries after “also recorded” stand apart in the source; their conditions may differ.",
  "data": [
    {"compound": "Cc1ncc([N+](=O)[O-])n1CCO", "note": "[Metronidazole, metronidazole, reference compound]", "values": [
      {"measurement": "rate of C. difficile clearance from feces", "setting": "C. difficile 630", "value": "did not result in enhanced rates of clearance relative to vehicle controls"}
    ]},
    {"compound": "C[C@H]1CN(c2cc3c(cc2[N+](=O)[O-])c(=O)c(C(=O)O)cn3C2CC2)CCN1N=Nc1ccc(S(N)(=O)=O)cc1", "note": "[ZINC000100032716, 1-Cyclopropyl-7-[(3S)-3-methyl-4-[(4-sulfamoylphenyl)diazenyl]piperazin-1-yl]-6-nitro-4-oxoquinoline-3-carboxylic acid]", "values": [
      {"measurement": "activity against E. coli harboring resistance determinants", "setting": "[1]", "value": "overcome an array of common resistance determinants"},
      {"measurement": "impact of plasmid-borne fluoroquinolone resistance on MIC", "setting": "[1]", "value": "only weakly impacted; also recorded: minor increase in MIC"},
      {"measurement": "spectrum of growth inhibitory activity", "setting": "[2]", "value": "potent broad-spectrum activity"},
      {"measurement": "impact of chromosomal resistance", "setting": "[3]", "value": "only weakly impacted"},
      {"measurement": "smaller change in MIC between gyrA mutant and wildtype E. coli relative to ciprofloxacin", "setting": "[3]; gyrA S83A vs BW25113", "value": 4, "unit": "fold"},
      {"measurement": "bactericidal activity against E. coli", "setting": "E. coli [4]", "value": "bactericidal activity"}
    ]},
    {"compound": "CC1(C)S[C@@H]2[C@H](NC(=O)[C@H](N)c3ccccc3)C(=O)N2[C@H]1C(=O)O", "note": "[ampicillin, reference compound]", "values": [
      {"measurement": "bactericidal activity against metabolically repressed, antibiotic-tolerant E. coli", "setting": "[5]", "value": "unable to eradicate E. coli"},
      {"measurement": "bacterial cell killing, metabolically active E. coli", "setting": "E. coli [4]", "value": "efficacy against metabolically active cells"}
    ]},
    {"compound": "Nc1nnc(Sc2ncc([N+](=O)[O-])s2)s1", "note": "[halicin, 5-[(5-nitro-1,3-thiazol-2-yl)sulfanyl]-1,3,4-thiadiazol-2-amine]", "values": [
      {"measurement": "change in MIC in the presence of resistance gene relative to antibiotic-susceptible parent strains", "setting": "[1]", "value": "No change in halicin MIC"},
      {"measurement": "MIC", "setting": "C. difficile strain 630", "value": 0.5, "unit": "µg/mL"},
      {"measurement": "mice sterilized after 72 hours of treatment", "setting": "C. difficile 630; 15 mg/kg gavage every 24 hours", "value": "3 out of 4"},
      {"measurement": "mice sterilized after 96 hours of treatment", "setting": "C. difficile 630; 15 mg/kg gavage every 24 hours", "value": "4 out of 4"},
      {"measurement": "mice free of infection at 96 hours after treatment", "setting": "C. difficile 630; 15 mg/kg, n=4", "value": 100, "unit": "%"},
      {"measurement": "rate of C. difficile clearance from feces", "setting": "C. difficile 630", "value": "clearance from feces at a greater rate than vehicle or the antibiotic metronidazole"},
      {"measurement": "killing of A. baumannii 288 in antibiotic-tolerant conditions", "setting": "A. baumannii 288 cells", "value": "able to sterilize A. baumannii 288 cells"},
      {"measurement": "evolution of resistant mutants", "setting": "E. coli BW25113 [6]", "value": "not possible to isolate spontaneous suppressor mutants"},
      {"measurement": "growth inhibition of P. aeruginosa clinical isolates", "setting": "[7]", "value": "lack of efficacy"},
      {"measurement": "change in MIC in nitrofurantoin-resistant E. coli", "setting": "ΔnfsAΔnfsB E. coli", "value": "did not change"},
      {"measurement": "bactericidal activity against metabolically repressed, antibiotic-tolerant E. coli", "setting": "[5]", "value": "retained bactericidal activity against tolerant cells"},
      {"measurement": "bactericidal activity against M. tuberculosis", "setting": "M. tuberculosis", "value": "rapidly bactericidal"},
      {"measurement": "growth inhibition of CRE clinical isolates", "setting": "[8]", "value": "strong growth inhibitory activity"},
      {"measurement": "expression of cell motility genes", "setting": "E. coli [9]", "value": "rapid downregulation of genes involved in cell motility"},
      {"measurement": "expression of iron homeostasis genes", "setting": "E. coli [9]; sub-lethal concentrations", "value": "upregulation of genes required for iron homeostasis"},
      {"measurement": "MIC", "setting": "A. baumannii CDC 288 [10]", "value": 1, "unit": "µg/mL"},
      {"measurement": "cross-resistance in daptomycin-resistant S. aureus", "setting": "[11]", "value": "did not confer cross-resistance to halicin"},
      {"measurement": "growth inhibition of A. baumannii clinical isolates", "setting": "[12]", "value": "strong growth inhibitory activity"},
      {"measurement": "bacterial load of wound tissue, one mouse", "setting": "A. baumannii CDC 288 [13]", "value": "≈ 10^5 CFU/g"},
      {"measurement": "bacterial load of wound tissue, 5 of the 6 mice", "setting": "A. baumannii CDC 288 [13]; below the limit of detection", "value": "less than 10^3 CFU/g"},
      {"measurement": "MIC", "setting": "E. coli BW25113 [14]", "value": 2, "unit": "µg/mL"},
      {"measurement": "interaction with kanamycin", "setting": "E. coli [15]; checkerboard", "value": "synergized with kanamycin"},
      {"measurement": "interaction with tetracycline", "setting": "E. coli [15]; checkerboard", "value": "antagonized the activity of tetracycline"},
      {"measurement": "interaction with Fe^3+ (FeCl3)", "setting": "E. coli [15]; increasing concentrations of environmental Fe^3+", "value": "enhanced potency of halicin"},
      {"measurement": "DiSC3(5) fluorescence change, E. coli", "setting": "E. coli MC1061", "value": "immediate decrease in DiSC3(5) fluorescence in a dose-dependent manner"},
      {"measurement": "eradication of E. coli persister cells", "setting": "E. coli persister cells", "value": "able to eradicate E. coli persister cells"},
      {"measurement": "MIC", "setting": "M. tuberculosis H37Rv", "value": 16, "unit": "µg/mL"},
      {"measurement": "potency as a function of media pH, E. coli", "setting": "E. coli [16]", "value": "halicin potency decreased as pH increased"},
      {"measurement": "effect of sodium bicarbonate on growth inhibition", "setting": "E. coli [16]; 25 mM sodium bicarbonate in growth medium", "value": "antagonized the action of halicin"},
      {"measurement": "activity against MRSA", "setting": "MRSA", "value": "potent activity"},
      {"measurement": "potency as a function of media pH, Staphylococcus aureus", "setting": "S. aureus USA300", "value": "halicin potency decreased as pH increased"},
      {"measurement": "bacterial cell killing, metabolically active E. coli", "setting": "E. coli [4]", "value": "bacterial cell killing was observed"}
    ]},
    {"compound": "polymyxin B [reference compound]", "values": [
      {"measurement": "DiSC3(5) fluorescence change, E. coli", "setting": "E. coli MC1061", "value": "corresponding increase in fluorescence"}
    ]}
  ]
}
